For the experiment, the system named is SARS-CoV-2. In words: Impedance-based (Maestro Z resistance/TEER) assay of SARS-CoV-2 cytopathic effect in Vero E6 monolayers. Particulars: for pIC50: Vero E6, pre-treated 1 hour, MOI 0.01, normalized resistance at 48 hpi; for IC90: Vero E6, MOI 0.01, normalized resistance at 48 hpi; for inhibitory activity against SARS-CoV-2 (percent inhibition relative to DMSO control): Vero E6, serial half-log dilutions, MOI 0.01, 48 hours. It is filed as cell-based.

Where [1] appears, read: Severe acute respiratory syndrome coronavirus 2, Vero C1008.
The mark [2] stands for this setting: Severe acute respiratory syndrome coronavirus 2, Vero C1008, non-toxic doses, read-out: estimated IC50.

Data on seven compounds can be found in patent publication US20230293521A1, “METHODS FOR SCREENING NOVEL CORONAVIRUS ANTIVIRALS AND METHODS OF USING ANTIVIRALS FOR THE TREATMENT OF CORONAVIRUS INFECTIONS” (priority 2020, published 2023).

Each structure is given as a SMILES string. pIC50: −log10 of the molar value. Like-named read-outs stand apart in the source and are kept apart here.

As for `CCC(CC)COC(=O)[C@H](C)N[P@](=O)(OC[C@H]1O[C@@](C#N)(c2ccc3c(N)ncnn23)[C@H](O)[C@@H]1O)Oc1ccccc1` [Remdesivir], the pIC50 (Severe acute respiratory syndrome coronavirus 2, Vero C1008, read-out: 50% inhibitory concentration (IC50)) is 5.81. Usually IC90 stands for the point of the concentration-response curve where the effect stands at 90%. `CC(C)(O)CNc1ncc(-c2ccnc(Nc3ccncc3)n2)c(CC2CC2)n1` [VPS34-IN1] had an IC90 under setting [1] of 2520 nM. For the same compound, under setting [2], the pIC50 is above 6.22. As for `CCCCCCCCCCC[C@@H](C[C@@H]1OC(=O)[C@H]1CCCCCC)OC(=O)[C@H](CC(C)C)NC=O` [Orlistat], the “completeness of inhibition of viral cytopathic effects” value (with 500 µM, Vero E6) is given as “complete inhibition was not achieved”.

Consider `CS(=O)(=O)O.O=C([C@@H]1CCCN(c2ccc3[nH]c(C4(n5cc(Cl)cn5)CC4)nc3n2)C1)N1CCCC1` [PF06424439], for which the “inhibitory activity against SARS-CoV-2 (percent inhibition relative to DMSO control)” value is recorded as “Neither compound displayed any inhibitory activity”. `Nc1ncc(-c2ccnc(Nc3ccncc3)n2)c(CC2CC2)n1` [PIK-III] gave an IC90 under setting [1] of 1810 nM. In addition, the pIC50 under setting [2] was above 6.22.

For the compound `CCC/C=C/C/C=C/C=C/C=N/NN=O` [Triacsin C], the pIC50 (read-out: 50% inhibitory concentration (IC50)) was around 4.70. As to `CC1(C)Oc2ncnc(N)c2N=C1c1ccc([C@H]2CC[C@H](CC(=O)O)CC2)cc1` [T863], the “inhibitory activity against SARS-CoV-2 (percent inhibition relative to DMSO control)” value is recorded as “Neither compound displayed any inhibitory activity”.
